This is an account of results in patent publication US20150181863A1, “FLEXIBLE SUPERABSORBENT BINDER POLYMER AND ANTIMICROBIAL AGENT COMPOSITION” (EVONIK INDUSTRIES AG, priority 2013, published 2015).

For the assay, the system named is Escherichia coli (ATCC 11229)/Staphylococcus aureus (ATCC 6538)/Pseudomonas aeruginosa (ATCC 27853). Put plainly: Zone of Inhibition Test, control line (organism not stated). The settings on record: 5 μg disk, n = 1; one value only, organism not assigned; 48 hours at ambient temperature. Type of assay: cell-based. As to the method:
Zone of inhibition testing with a variety of gram negative and gram positive bacteria was performed. The test material was brought into contact with a known amount of test microorganisms on an agar plate for 48 hours at ambient temperature. At the end of the contact time the diameter of inhibited colony formation (zone of inhibition) surrounding the test material was measured.
Referenced method AATCC 147-1998 “Antibacterial Activity Assessment of Textile Materials: Parallel Streak Method” with changes for following Zone of Inhibition procedure (AATCC is “American Association of Textile Chemists and Colorists” located in Research Triangle Park, N.C.):
Organisms used in this study were Escherichia coli (ATCC 11229)/Staphylococcus aureus (ATCC 6538)/Pseudomonas aeruginosa (ATCC 27853) (ATCC is “American Type Culture Collection” an organization in Manassas, Va.). Washed cells were diluted in Butterfield's Phosphate buffer to a target titer of approximately 10^8 colony forming units (CFU)/mL. Agar plates for testing were brought to room temperature prior to inoculation. A sterile applicator swab was placed in cell suspension and excess fluid was expressed using the side of the centrifuge tube. […] At the end of the contact time, the diameter of inhibited colony formation (zone of inhibition) surrounding the test material was measured.

Consider `CN[C@H](CC(C)C)C(=O)N[C@H]1C(=O)N[C@@H](CC(N)=O)C(=O)N[C@H]2C(=O)N[C@H]3C(=O)N[C@H](C(=O)N[C@H](C(=O)O)c4cc(O)cc(O)c4-c4cc3ccc4O)[C@H](O)c3ccc(c(Cl)c3)Oc3cc2cc(c3O[C@@H]2O[C@H](CO)[C@@H](O)[C@H](O)[C@H]2O[C@H]2C[C@](C)(N)[C@H](O)[C@H](C)O2)Oc2ccc(cc2Cl)[C@H]1O` [Positive Control, vancomycin], for which the “ZOI* (cm), single value for control” value was 1.9 cm.
